In the NIST ThermoML archive (doi:10.1016/j.jct.2005.12.005):

How the values were obtained:
[1] = xn = mol fraction of the nth substance listed; conditions: 101 kPa, Liquid; for speed of sound: Sing-around technique in a fixed-path interferometer
[2] = refractive index (Na D-line) (dimensionless); xn = mol fraction of the nth substance listed; conditions: 101 kPa, Liquid

Cc1ccc(C)cc1 [1,4-dimethylbenzene] + CC1CCCCC1
x2 = 0
Conditions | mass density, 298.15 K [kg/m3] | mass density, 303.15 K [kg/m3] | mass density, 308.15 K [kg/m3] | refractive index, 298.15 K | refractive index, 303.15 K | refractive index, 308.15 K | speed of sound, 298.15 K [m/s] | viscosity, 298.15 K [mPa·s] | viscosity, 303.15 K [mPa·s] | viscosity, 308.15 K [mPa·s]
[1] | 856.7 | 852.3 | 848 | – | – | – | 1326 | 0.611 | 0.572 | 0.54
[2] | – | – | – | 1.4926 | 1.4893 | 1.4867 | – | – | – | –

CC1CCCCC1 [methylcyclohexane] + Cc1ccc(C)cc1
Conditions | mass density, 298.15 K [kg/m3] | mass density, 303.15 K [kg/m3] | mass density, 308.15 K [kg/m3] | refractive index, 298.15 K | refractive index, 303.15 K | refractive index, 308.15 K | speed of sound, 298.15 K [m/s] | viscosity, 298.15 K [mPa·s] | viscosity, 303.15 K [mPa·s] | viscosity, 308.15 K [mPa·s]
[1], x1 = 0.0993 | 846.6 | 842.3 | 837.9 | – | – | – | 1315 | 0.597 | 0.566 | 0.536
[1], x1 = 0.2037 | 836.2 | 831.8 | 827.5 | – | – | – | 1303 | 0.59 | 0.557 | 0.523
[1], x1 = 0.3028 | 826.4 | 822.1 | 817.8 | – | – | – | 1293 | 0.587 | 0.553 | 0.52
[1], x1 = 0.4047 | 816.7 | 812.3 | 808 | – | – | – | 1282 | 0.586 | 0.553 | 0.52
[1], x1 = 0.5382 | 804.2 | 799.9 | 795.5 | – | – | – | 1268 | 0.593 | 0.559 | 0.525
[1], x1 = 0.6035 | 798.3 | 794 | 789.6 | – | – | – | 1261 | 0.597 | 0.562 | 0.528
[1], x1 = 0.703 | 789.5 | 785.1 | 780.8 | – | – | – | 1250 | 0.608 | 0.573 | 0.537
[1], x1 = 0.8037 | 780.8 | 776.5 | 772.2 | – | – | – | 1239 | 0.625 | 0.588 | 0.55
[1], x1 = 0.8981 | 773 | 768.7 | 764.4 | – | – | – | 1228 | 0.646 | 0.607 | 0.569
[1], x1 = 1 | 765 | 760.7 | 756.3 | – | – | – | 1217 | 0.676 | 0.631 | 0.59
[2], x1 = 0.0993 | – | – | – | 1.4848 | 1.482 | 1.4793 | – | – | – | –
[2], x1 = 0.2037 | – | – | – | 1.4767 | 1.4743 | 1.4718 | – | – | – | –
[2], x1 = 0.3028 | – | – | – | 1.469 | 1.4668 | 1.4646 | – | – | – | –
[2], x1 = 0.4047 | – | – | – | 1.4615 | 1.4594 | 1.4572 | – | – | – | –
[2], x1 = 0.5382 | – | – | – | 1.4519 | 1.4498 | 1.4476 | – | – | – | –
[2], x1 = 0.6035 | – | – | – | 1.4473 | 1.4451 | 1.443 | – | – | – | –
[2], x1 = 0.703 | – | – | – | 1.4405 | 1.4384 | 1.4362 | – | – | – | –
[2], x1 = 0.8037 | – | – | – | 1.4338 | 1.4314 | 1.429 | – | – | – | –
[2], x1 = 0.8981 | – | – | – | 1.4279 | 1.4253 | 1.4228 | – | – | – | –
[2], x1 = 1 | – | – | – | 1.4217 | 1.4192 | 1.4163 | – | – | – | –

COc1ccccc1 [anisole] + CC1CCCCC1
Conditions | mass density, 298.15 K [kg/m3] | mass density, 303.15 K [kg/m3] | mass density, 308.15 K [kg/m3] | refractive index, 298.15 K | refractive index, 303.15 K | refractive index, 308.15 K | speed of sound, 298.15 K [m/s] | viscosity, 298.15 K [mPa·s] | viscosity, 303.15 K [mPa·s] | viscosity, 308.15 K [mPa·s]
[1], x2 = 0 | 989.2 | 984.5 | 979.8 | – | – | – | 1410 | 1.008 | 0.929 | 0.861
[1], x2 = 0.1025 | 962.1 | 957.4 | 952.7 | – | – | – | 1391 | 0.924 | 0.905 | 0.808
[1], x2 = 0.2009 | 936.5 | 931.8 | 927.2 | – | – | – | 1372 | 0.854 | 0.792 | 0.737
[1], x2 = 0.3006 | 911.8 | 907.2 | 902.6 | – | – | – | 1352 | 0.793 | 0.734 | 0.693
[1], x2 = 0.406 | 886.7 | 882.2 | 877.6 | – | – | – | 1333 | 0.75 | 0.694 | 0.654
[1], x2 = 0.5043 | 864.4 | 860.1 | 855.4 | – | – | – | 1314 | 0.717 | 0.664 | 0.627
[1], x2 = 0.6058 | 842.2 | 837.8 | 833.3 | – | – | – | 1294 | 0.689 | 0.645 | 0.605
[1], x2 = 0.7026 | 821.9 | 817.3 | 813 | – | – | – | 1275 | 0.675 | 0.634 | 0.593
[1], x2 = 0.8023 | 801.8 | 797.4 | 792.9 | – | – | – | 1256 | 0.667 | 0.621 | 0.584
[1], x2 = 0.9053 | 782.1 | 777.8 | 773.4 | – | – | – | 1236 | 0.666 | 0.622 | 0.583
[2], x2 = 0 | – | – | – | 1.5136 | 1.5112 | 1.5088 | – | – | – | –
[2], x2 = 0.1025 | – | – | – | 1.5023 | 1.5036 | 1.4978 | – | – | – | –
[2], x2 = 0.2009 | – | – | – | 1.4917 | 1.489 | 1.487 | – | – | – | –
[2], x2 = 0.3006 | – | – | – | 1.4813 | 1.4801 | 1.4766 | – | – | – | –
[2], x2 = 0.406 | – | – | – | 1.4706 | 1.4701 | 1.4659 | – | – | – | –
[2], x2 = 0.5043 | – | – | – | 1.4609 | 1.4586 | 1.4563 | – | – | – | –
[2], x2 = 0.6058 | – | – | – | 1.4516 | 1.4497 | 1.4467 | – | – | – | –
[2], x2 = 0.7026 | – | – | – | 1.4431 | 1.4408 | 1.4382 | – | – | – | –
[2], x2 = 0.8023 | – | – | – | 1.4351 | 1.4323 | 1.4301 | – | – | – | –
[2], x2 = 0.9053 | – | – | – | 1.4278 | 1.4242 | 1.4226 | – | – | – | –
